Experimental data taken from PubChem BioAssay AID1963440 (Molecular Pharmacology Branch, DTP, NCI, 2024).

Tested on: NCI-H1417 complex spheroids, growth % test/control
Experiment: Anticancer human tumor NCI-H1417 cell line growth inhibition [Asc];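 also: spheroids exposed to compounds for 7 days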;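 as to viability, T/C: 100% = DMSO vehicle control wells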
Details: for IC50: curve of first compound; for viability, T/C: stronger effect = lower value
Method in brief: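 Concentration series start at each agent's clinical Cmax, or at 10 microM when none is established, and drop in half-log steps; agents are applied alone or together to complex spheroids built with HUVEC and hMSC.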

[1] = second compound 0.03 µM, first compound 0.00316 µM
[2] = second compound 0.03 µM, first compound 0.01 µM
[3] = second compound 0.03 µM, first compound 0.0316 µM
[4] = second compound 0.03 µM, first compound 0.1 µM
[5] = second compound 0.03 µM, first compound 0.316 µM
[6] = second compound 0.03 µM, first compound 1 µM
[7] = second compound 0.0949 µM, first compound 0.00316 µM
[8] = second compound 0.0949 µM, first compound 0.01 µM
[9] = second compound 0.0949 µM, first compound 0.0316 µM
[10] = second compound 0.0949 µM, first compound 0.1 µM
[11] = second compound 0.0949 µM, first compound 0.316 µM
[12] = second compound 0.0949 µM, first compound 1 µM
[13] = second compound 0.3 µM, first compound 0.00316 µM
[14] = second compound 0.3 µM, first compound 0.01 µM
[15] = second compound 0.3 µM, first compound 0.0316 µM
[16] = second compound 0.3 µM, first compound 0.1 µM
[17] = second compound 0.3 µM, first compound 0.316 µM
[18] = second compound 0.3 µM, first compound 1 µM
[19] = second compound 0.949 µM, first compound 0.00316 µM
[20] = second compound 0.949 µM, first compound 0.01 µM
[21] = second compound 0.949 µM, first compound 0.0316 µM
[22] = second compound 0.949 µM, first compound 0.1 µM
[23] = second compound 0.949 µM, first compound 0.316 µM
[24] = second compound 0.949 µM, first compound 1 µM
[25] = second compound 3 µM, first compound 0.00316 µM
[26] = second compound 3 µM, first compound 0.01 µM
[27] = second compound 3 µM, first compound 0.0316 µM
[28] = second compound 3 µM, first compound 0.1 µM
[29] = second compound 3 µM, first compound 0.316 µM
[30] = second compound 3 µM, first compound 1 µM

With `Cc1nc(N2CCC3(CC2)COC(C)C3N)c(CO)nc1Sc1ccnc(N)c1Cl` (stereo not given) + CCN1C(C(=O)NC23CCC(C(=O)O)(CC2)CC3)C(c2cccc(Cl)c2F)C2(C(=O)Nc3cc(Cl)ccc32)C12CCCCC2 the IC50 (second compound 0.03 µM) was > 3000 nM, the IC50 (second compound 0.0949 µM) was > 3000 nM and the IC50 (second compound 0.3 µM) was > 3000 nM. The IC50 (second compound 0.949 µM) was > 3000 nM, the IC50 (second compound 3 µM) was > 3000 nM and the viability, T/C (second compound 0.03 µM, first compound 0.00949 µM) was 106%. The viability, T/C (second compound 0.03 µM, first compound 0.03 µM) was 104%, the viability, T/C (second compound 0.03 µM, first compound 0.0949 µM) was 92.1% and the viability, T/C (second compound 0.03 µM, first compound 0.3 µM) was 86.1%. The viability, T/C (second compound 0.03 µM, first compound 0.949 µM) was 90.4%, the viability, T/C (second compound 0.03 µM, first compound 3 µM) was 82.6% and the viability, T/C (second compound 0.0949 µM, first compound 0.00949 µM) was 92.8%. The viability, T/C (second compound 0.0949 µM, first compound 0.03 µM) was 89.5%, the viability, T/C (second compound 0.0949 µM, first compound 0.0949 µM) was 91.4% and the viability, T/C (second compound 0.0949 µM, first compound 0.3 µM) was 82.1%. The viability, T/C (second compound 0.0949 µM, first compound 0.949 µM) was 87.8%, the viability, T/C (second compound 0.0949 µM, first compound 3 µM) was 79.4% and the viability, T/C (second compound 0.3 µM, first compound 0.00949 µM) was 98.6%. It also gave a viability, T/C (second compound 0.3 µM, first compound 0.03 µM) of 104%, a viability, T/C (second compound 0.3 µM, first compound 0.0949 µM) of 106% and a viability, T/C (second compound 0.3 µM, first compound 0.3 µM) of 82.7%. It also gave a viability, T/C (second compound 0.3 µM, first compound 0.949 µM) of 92.9%, a viability, T/C (second compound 0.3 µM, first compound 3 µM) of 82.5% and a viability, T/C (second compound 0.949 µM, first compound 0.00949 µM) of 103%. The viability, T/C (second compound 0.949 µM, first compound 0.03 µM) was 93.9%, the viability, T/C (second compound 0.949 µM, first compound 0.0949 µM) was 97.4% and the viability, T/C (second compound 0.949 µM, first compound 0.3 µM) was 78.3%. It also gave a viability, T/C (second compound 0.949 µM, first compound 0.949 µM) of 73.3%, a viability, T/C (second compound 0.949 µM, first compound 3 µM) of 84.4% and a viability, T/C (second compound 3 µM, first compound 0.00949 µM) of 88.9%. It also gave a viability, T/C (second compound 3 µM, first compound 0.03 µM) of 95%, a viability, T/C (second compound 3 µM, first compound 0.0949 µM) of 96.5% and a viability, T/C (second compound 3 µM, first compound 0.3 µM) of 99.7%. For the same compound, the viability, T/C (second compound 3 µM, first compound 0.949 µM) was 79.9% and the viability, T/C (second compound 3 µM, first compound 3 µM) was 80.3%.
`CCN1CCN(Cc2ccc(Nc3ncc(F)c(-c4cc(F)c5nc(C)n(C(C)C)c5c4)n3)nc2)CC1` + CCN1C(C(=O)NC23CCC(C(=O)O)(CC2)CC3)C(c2cccc(Cl)c2F)C2(C(=O)Nc3cc(Cl)ccc32)C12CCCCC2 was tested, and the IC50 (second compound 0.03 µM) was > 1000 nM, the IC50 (second compound 0.0949 µM) was > 1000 nM and the IC50 (second compound 0.3 µM) was > 1000 nM. For the same compound, the IC50 (second compound 0.949 µM) was > 1000 nM, the IC50 (second compound 3 µM) was > 1000 nM and the viability, T/C [1] was 108%. The viability, T/C [2] was 110%, the viability, T/C [3] was 93.6% and the viability, T/C [4] was 93.8%. The viability, T/C [5] was 97.8%, the viability, T/C [6] was 83% and the viability, T/C [7] was 103%. It also gave a viability, T/C [8] of 104%, a viability, T/C [9] of 92.7% and a viability, T/C [10] of 98.2%. For the same compound, the viability, T/C [11] was 94%, the viability, T/C [12] was 91.5% and the viability, T/C [13] was 103%. The viability, T/C [14] was 100%, the viability, T/C [15] was 110% and the viability, T/C [16] was 102%. It also gave a viability, T/C [17] of 95.7%, a viability, T/C [18] of 81.2% and a viability, T/C [19] of 87.2%. It also gave a viability, T/C [20] of 93.1%, a viability, T/C [21] of 88.2% and a viability, T/C [22] of 91.1%. The viability, T/C [23] was 88.8%, the viability, T/C [24] was 78.4% and the viability, T/C [25] was 99.5%. It also gave a viability, T/C [26] of 91.1%, a viability, T/C [27] of 98.8% and a viability, T/C [28] of 91.4%. For the same compound, the viability, T/C [29] was 83.8% and the viability, T/C [30] was 75.1%.
For `Cc1nc(N2CCC3(CC2)COC(C)C3N)c(CO)nc1Sc1ccnc(N)c1Cl` (stereo not given) + Cc1c(S(C)(=O)=O)c(-c2cc(F)cc(N3CCN(c4ccc(NS(=O)(=O)c5ccc(NC(CCN6CCC(C(=O)OCCCP(=O)(O)O)CC6)CSc6ccccc6)c(S(=O)(=O)C(F)(F)F)c5)cc4)CC3)c2)c(-c2ccc(Cl)cc2)n1C(C)C, the IC50 (second compound 0.1 µM) was > 3000 nM, the IC50 (second compound 0.316 µM) was < 9.49 nM and the IC50 (second compound 1 µM) was < 9.49 nM. For the same compound, the IC50 (second compound 3.16 µM) was < 9.49 nM, the IC50 (second compound 10 µM) was < 9.49 nM and the viability, T/C (second compound 0.1 µM, first compound 0.00949 µM) was 81.4%. It also gave a viability, T/C (second compound 0.1 µM, first compound 0.03 µM) of 82%, a viability, T/C (second compound 0.1 µM, first compound 0.0949 µM) of 71.4% and a viability, T/C (second compound 0.1 µM, first compound 0.3 µM) of 64.8%. The viability, T/C (second compound 0.1 µM, first compound 0.949 µM) was 64.4%, the viability, T/C (second compound 0.1 µM, first compound 3 µM) was 52.6% and the viability, T/C (second compound 0.316 µM, first compound 0.00949 µM) was 46.9%. For the same compound, the viability, T/C (second compound 0.316 µM, first compound 0.03 µM) was 46.3%, the viability, T/C (second compound 0.316 µM, first compound 0.0949 µM) was 32.9% and the viability, T/C (second compound 0.316 µM, first compound 0.3 µM) was 23.9%. For the same compound, the viability, T/C (second compound 0.316 µM, first compound 0.949 µM) was 13.7%, the viability, T/C (second compound 0.316 µM, first compound 3 µM) was 12.2% and the viability, T/C (second compound 1 µM, first compound 0.00949 µM) was 12.4%. It also gave a viability, T/C (second compound 1 µM, first compound 0.03 µM) of 9.91%, a viability, T/C (second compound 1 µM, first compound 0.0949 µM) of 6.5% and a viability, T/C (second compound 1 µM, first compound 0.3 µM) of 3.75%. For the same compound, the viability, T/C (second compound 1 µM, first compound 0.949 µM) was 1.89%, the viability, T/C (second compound 1 µM, first compound 3 µM) was 0.84% and the viability, T/C (second compound 3.16 µM, first compound 0.00949 µM) was 2.34%. For the same compound, the viability, T/C (second compound 3.16 µM, first compound 0.03 µM) was 2.47%, the viability, T/C (second compound 3.16 µM, first compound 0.0949 µM) was 1.68% and the viability, T/C (second compound 3.16 µM, first compound 0.3 µM) was 1.09%. For the same compound, the viability, T/C (second compound 3.16 µM, first compound 0.949 µM) was 0.67%, the viability, T/C (second compound 3.16 µM, first compound 3 µM) was 0.5% and the viability, T/C (second compound 10 µM, first compound 0.00949 µM) was 2.47%. It also gave a viability, T/C (second compound 10 µM, first compound 0.03 µM) of 2.41%, a viability, T/C (second compound 10 µM, first compound 0.0949 µM) of 1.78% and a viability, T/C (second compound 10 µM, first compound 0.3 µM) of 1.37%. The viability, T/C (second compound 10 µM, first compound 0.949 µM) was 1.05% and the viability, T/C (second compound 10 µM, first compound 3 µM) was 1.2%.
`CNC(C)C(=O)NC1CN(S(=O)(=O)c2cccc(S(=O)(=O)N3CCC4CCC(C(=O)NC(c5ccccc5)c5ccccc5)N4C(=O)C(NC(=O)C(C)NC)C3)c2)CCC2CCC(C(=O)NC(c3ccccc3)c3ccccc3)N2C1=O` (stereo not given) + CCN1C(C(=O)NC23CCC(C(=O)O)(CC2)CC3)C(c2cccc(Cl)c2F)C2(C(=O)Nc3cc(Cl)ccc32)C12CCCCC2 was tested, and the IC50 (second compound 0.03 µM) was > 1000 nM, the IC50 (second compound 0.0949 µM) was > 1000 nM and the IC50 (second compound 0.3 µM) was > 1000 nM. For the same compound, the IC50 (second compound 0.949 µM) was > 1000 nM, the IC50 (second compound 3 µM) was > 1000 nM and the viability, T/C [1] was 121%. For the same compound, the viability, T/C [2] was 107%, the viability, T/C [3] was 112% and the viability, T/C [4] was 111%. For the same compound, the viability, T/C [5] was 99.8%, the viability, T/C [6] was 109% and the viability, T/C [7] was 101%. The viability, T/C [8] was 94.8%, the viability, T/C [9] was 108% and the viability, T/C [10] was 91.5%. It also gave a viability, T/C [11] of 101%, a viability, T/C [12] of 115% and a viability, T/C [13] of 116%. The viability, T/C [14] was 118%, the viability, T/C [15] was 94.6% and the viability, T/C [16] was 104%. For the same compound, the viability, T/C [17] was 105%, the viability, T/C [18] was 100% and the viability, T/C [19] was 97%. It also gave a viability, T/C [20] of 98.9%, a viability, T/C [21] of 93.4% and a viability, T/C [22] of 97.5%. For the same compound, the viability, T/C [23] was 87.1%, the viability, T/C [24] was 91.1% and the viability, T/C [25] was 97.2%. It also gave a viability, T/C [26] of 98.8%, a viability, T/C [27] of 91.8% and a viability, T/C [28] of 90.8%. It also gave a viability, T/C [29] of 84.2% and a viability, T/C [30] of 99.4%.
